Experimental data from patent publication US10413505B1, “Pharmaceutical compositions and methods of using the same” (priority 2017, dated 2019).

What was measured:
[1] = Example 2 urinary pharmacokinetics, normal renal function vs severe renal impairment; conditions: for CL renal: human, 160 mg; for 0 to 32 hour urinary recovery (geometric mean) / 0 to 32 hour urinary recovery (mean) / 0 to 32 hour urinary recovery (median): metabolites as cocaine equivalents
Description: For the urine analysis of cocaine, BE, and EME, individual urinary recoveries for each analyte were determined over each collection interval as the product of the urine concentration times the urine volume. The total recoveries were determined as the sum of the recoveries over all the intervals. Total urinary recoveries were also expressed as the percentage of the administered dose, after correction for the molecular weight of each analyte. The renal clearances of cocaine, BE, and EME were determined as the urinary recovery (in μg) divided by the plasma AUC over the same time interval (the longest period for which both plasma and urine measurements were available).
Urine was collected prior to dosing and from 0-2, 2-4, 4-8, 8-12, 12-24, and 24-32 hours after the beginning of dose application. […] Testing methods used were consistent with those used by inVentiv Health Clinical Lab, Inc., Miami, Fla., U.S.A. Urinary pharmacokinetic parameters included total urinary recovery (μg), urinary recovery as a percentage of dose, and CLr.

[2] = topical application with cotton pledgets; cited from earlier work
[3] = Example 3 plasma pharmacokinetics, normal hepatic function vs hepatic impairment; conditions: for AUC(0-t) / AUC(0-inf) / Cmax / Tmax / half-life: both, human, 160 mg
[4] = normal renal function, single intranasal 160 mg cocaine HCl
[5] = severe renal impairment, single intranasal 160 mg cocaine HCl
[6] = hepatic impairment, single intranasal 160 mg cocaine HCl, plasma
[7] = normal hepatic function, single intranasal 160 mg cocaine HCl, plasma

## COC(=O)[C@H]1[C@@H](OC(=O)c2ccccc2)C[C@@H]2CC[C@H]1N2C [Cocaine, cocaine, reference compound]
[1]; both, urine, inhaled or intranasal, Renal Clearance, CLr (geometric mean), normal renal function, single intranasal 160 mg cocaine HCl
  CL renal: 26.8 mL/min
[1]; both, urine, inhaled or intranasal, Renal Clearance, CLr (geometric mean), severe renal impairment, single intranasal 160 mg cocaine HCl
  CL renal: 17.3 mL/min
[1]; both, urine, other: intranasal (drug-soaked pledgets in the nasal cavity), renal clearance, range observed, renally impaired patients, 32 hours from administration
  CL renal: 8.8 to 31.9 mL/min
[1]; urine and plasma, inhaled or intranasal, CLr (Geometric Least Squares Mean, ANOVA), Impaired renal function (severe), single intranasal 160 mg cocaine HCl
  CL renal: 17.3 mL/min
[1]; urine and plasma, inhaled or intranasal, CLr (Geometric Least Squares Mean, ANOVA), Normal renal function, single intranasal 160 mg cocaine HCl
  CL renal: 26.8 mL/min
[1]; urine and plasma, inhaled or intranasal, Renal Clearance (geometric mean), normal renal function, single intranasal 160 mg cocaine HCl
  CL renal: 26.9 mL/min
[1]; urine and plasma, inhaled or intranasal, Renal Clearance (geometric mean), severe renal impairment, single intranasal 160 mg cocaine HCl
  CL renal: 17.3 mL/min
[1]; urine and plasma, inhaled or intranasal, Renal Clearance (mean), normal renal function, single intranasal 160 mg cocaine HCl
  CL renal: 33.3 mL/min
[1]; urine and plasma, inhaled or intranasal, Renal Clearance (mean), severe renal impairment, single intranasal 160 mg cocaine HCl
  CL renal: 20.4 mL/min
[1]; urine and plasma, inhaled or intranasal, Renal Clearance (median), normal renal function, single intranasal 160 mg cocaine HCl
  CL renal: 33.6 mL/min
[1]; urine and plasma, inhaled or intranasal, Renal Clearance (median), severe renal impairment, single intranasal 160 mg cocaine HCl
  CL renal: 19.6 mL/min
[1]; urine and plasma, inhaled or intranasal, Renal Clearance, CLr (mean), normal renal function, single intranasal 160 mg cocaine HCl
  CL renal: 33.3 mL/min
[1]; urine and plasma, inhaled or intranasal, Renal Clearance, CLr (mean), severe renal impairment, single intranasal 160 mg cocaine HCl
  CL renal: 20.3 mL/min
[1]; urine and plasma, inhaled or intranasal, Renal Clearance, CLr (median), normal renal function, single intranasal 160 mg cocaine HCl
  CL renal: 33.7 mL/min
[1]; urine and plasma, inhaled or intranasal, Renal Clearance, CLr (median), severe renal impairment, single intranasal 160 mg cocaine HCl
  CL renal: 19.7 mL/min
[1]; [4]
  0-32 h Urinary Recovery (geometric mean): 122.8 µg
  0-32 h Urinary Recovery (mean): 164.2 µg
  0-32 h Urinary Recovery (median): 126.6 µg
  0 to 32 hour urinary recovery (geometric mean): 0.086 % of administered dose
  0 to 32 hour urinary recovery (mean): 0.115 % of administered dose
  0 to 32 hour urinary recovery (median): 0.089 % of administered dose
[1]; severe renal impairment vs normal renal function
  CLr, percent lower (reduction) than in normal subjects: approximately 36%
[1]; severe renal impairment vs normal renal function, ANOVA
  CLr Ratio Impaired/Normal: 64.33%
[1]; [5]
  0-32 h Urinary Recovery (geometric mean): 102.7 µg
  0-32 h Urinary Recovery (mean): 138.5 µg
  0-32 h Urinary Recovery (median): 89.8 µg
  0 to 32 hour urinary recovery (geometric mean): 0.072 % of administered dose
  0 to 32 hour urinary recovery (mean): 0.097 % of administered dose
  0 to 32 hour urinary recovery (median): 0.063 % of administered dose
[2]
  fraction absorbed from a cottonoid pledget: approximately 37%
[3]; ANOVA
  AUClast Ratio Grade B/Normal: 284.54%
  AUClast Ratio Grade C/Normal: 179.88%
  CL/F Ratio Grade B/Normal (GMR): 36.25%
  CL/F Ratio Grade C/Normal (GMR): 55.28%
  Cmax Ratio Grade C/Normal: 68.13%
[3]; ANOVA, excludes one outlier subject
  Cmax Ratio Grade B/Normal: 104.89%
[3]; Grade B hepatic impairment
  AUClast, times higher than normal subjects: 2.8 times
  CL/F (Geometric Least Squares Mean, ANOVA): 629 L/h
  CL/F, percent reduction vs normal: 64%
[3]; Grade B hepatic impairment, outlier excluded
  geometric mean Cmax, percent higher than normal: 5%
[3]; Grade B hepatic impairment, outlier included
  geometric mean Cmax, percent higher than normal: 56%
[3]; Grade C hepatic impairment
  AUClast, times higher than normal subjects: 1.8 times
  CL/F (Geometric Least Squares Mean, ANOVA): 959 L/h
  CL/F, percent reduction vs normal: 45%
  geometric mean Cmax, percent lower than normal: 32%
[3]; Normal hepatic function
  CL/F (Geometric Least Squares Mean, ANOVA): 1735 L/h
[3]; all hepatically impaired individuals, outlier excluded
  geometric mean Cmax, percent lower than normal: 7%
[3]; all hepatically impaired individuals, outlier included
  geometric mean Cmax, percent higher than normal: 27%
[3]; plasma, inhaled or intranasal, AUC0→t (Geometric mean), hepatic impairment, single intranasal 160 mg cocaine HCl
  AUC(0-t): 0.189 µg·h/mL
[3]; plasma, inhaled or intranasal, AUC0→t (Geometric mean), normal hepatic function, single intranasal 160 mg cocaine HCl
  AUC(0-t): 0.0792 µg·h/mL
[3]; plasma, inhaled or intranasal, AUC0→t (Mean), hepatic impairment, single intranasal 160 mg cocaine HCl
  AUC(0-t): 0.223 µg·h/mL
[3]; plasma, inhaled or intranasal, AUC0→t (Mean), normal hepatic function, single intranasal 160 mg cocaine HCl
  AUC(0-t): 0.0928 µg·h/mL
[3]; plasma, inhaled or intranasal, AUC0→t (Median), hepatic impairment, single intranasal 160 mg cocaine HCl
  AUC(0-t): 0.176 µg·h/mL
[3]; plasma, inhaled or intranasal, AUC0→t (Median), normal hepatic function, single intranasal 160 mg cocaine HCl
  AUC(0-t): 0.0824 µg·h/mL
[3]; plasma, inhaled or intranasal, AUC0→∞ (Geometric mean), hepatic impairment, single intranasal 160 mg cocaine HCl
  AUC(0-inf): 0.192 µg·h/mL
[3]; plasma, inhaled or intranasal, AUC0→∞ (Geometric mean), normal hepatic function, single intranasal 160 mg cocaine HCl
  AUC(0-inf): 0.0824 µg·h/mL
[3]; plasma, inhaled or intranasal, AUC0→∞ (Mean), hepatic impairment, single intranasal 160 mg cocaine HCl
  AUC(0-inf): 0.227 µg·h/mL
[3]; plasma, inhaled or intranasal, AUC0→∞ (Mean), normal hepatic function, single intranasal 160 mg cocaine HCl
  AUC(0-inf): 0.0953 µg·h/mL
[3]; plasma, inhaled or intranasal, AUC0→∞ (Median), hepatic impairment, single intranasal 160 mg cocaine HCl
  AUC(0-inf): 0.177 µg·h/mL
[3]; plasma, inhaled or intranasal, AUC0→∞ (Median), normal hepatic function, single intranasal 160 mg cocaine HCl
  AUC(0-inf): 0.0833 µg·h/mL
[3]; plasma, inhaled or intranasal, Cmax (Geometric mean), hepatic impairment, single intranasal 160 mg cocaine HCl
  Cmax: 0.0412 µg/mL
[3]; plasma, inhaled or intranasal, Cmax (Geometric mean), normal hepatic function, single intranasal 160 mg cocaine HCl
  Cmax: 0.0442 µg/mL
[3]; plasma, inhaled or intranasal, Cmax (Mean), hepatic impairment, single intranasal 160 mg cocaine HCl
  Cmax: 0.0507 µg/mL
[3]; plasma, inhaled or intranasal, Cmax (Mean), normal hepatic function, single intranasal 160 mg cocaine HCl
  Cmax: 0.0506 µg/mL
[3]; plasma, inhaled or intranasal, Cmax (Median), hepatic impairment, single intranasal 160 mg cocaine HCl
  Cmax: 0.0426 µg/mL
[3]; plasma, inhaled or intranasal, Cmax (Median), normal hepatic function, single intranasal 160 mg cocaine HCl
  Cmax: 0.0536 µg/mL
[3]; plasma, inhaled or intranasal, Tmax (Geometric mean), hepatic impairment, single intranasal 160 mg cocaine HCl
  Tmax: 0.828 h
[3]; plasma, inhaled or intranasal, Tmax (Geometric mean), normal hepatic function, single intranasal 160 mg cocaine HCl
  Tmax: 0.422 h
[3]; plasma, inhaled or intranasal, Tmax (Mean), hepatic impairment, single intranasal 160 mg cocaine HCl
  Tmax: 1.09 h
[3]; plasma, inhaled or intranasal, Tmax (Mean), normal hepatic function, single intranasal 160 mg cocaine HCl
  Tmax: 0.431 h
[3]; plasma, inhaled or intranasal, Tmax (Median), hepatic impairment, single intranasal 160 mg cocaine HCl
  Tmax: 0.75 h
[3]; plasma, inhaled or intranasal, Tmax (Median), normal hepatic function, single intranasal 160 mg cocaine HCl
  Tmax: 0.5 h
[3]; plasma, inhaled or intranasal, t1/2 (Geometric mean), hepatic impairment, single intranasal 160 mg cocaine HCl
  half-life: 4.99 h
[3]; plasma, inhaled or intranasal, t1/2 (Geometric mean), normal hepatic function, single intranasal 160 mg cocaine HCl
  half-life: 6.62 h
[3]; plasma, inhaled or intranasal, t1/2 (Mean), hepatic impairment, single intranasal 160 mg cocaine HCl
  half-life: 5.42 h
[3]; plasma, inhaled or intranasal, t1/2 (Mean), normal hepatic function, single intranasal 160 mg cocaine HCl
  half-life: 8.11 h
[3]; plasma, inhaled or intranasal, t1/2 (Median), hepatic impairment, single intranasal 160 mg cocaine HCl
  half-life: 5.63 h
[3]; plasma, inhaled or intranasal, t1/2 (Median), normal hepatic function, single intranasal 160 mg cocaine HCl
  half-life: 6.93 h
[3]; plasma, other: intranasal (drug-soaked pledgets in the nasal cavity), AUCinf, range observed, hepatically impaired patients
  AUC(0-inf): 0.088 to 0.366 µg·h/mL
[3]; plasma, other: intranasal (drug-soaked pledgets in the nasal cavity), AUClast (Geometric Least Squares Mean, ANOVA), Grade B hepatic impairment
  AUC(0-t): 0.225 µg·h/mL
[3]; plasma, other: intranasal (drug-soaked pledgets in the nasal cavity), AUClast (Geometric Least Squares Mean, ANOVA), Grade C hepatic impairment
  AUC(0-t): 0.142 µg·h/mL
[3]; plasma, other: intranasal (drug-soaked pledgets in the nasal cavity), AUClast (Geometric Least Squares Mean, ANOVA), Normal hepatic function
  AUC(0-t): 0.0792 µg·h/mL
[3]; plasma, other: intranasal (drug-soaked pledgets in the nasal cavity), Cmax (Geometric Least Squares Mean, ANOVA), Grade B hepatic impairment, excludes one subject with anomalous concentration at 7 minutes
  Cmax: 0.0464 µg/mL
[3]; plasma, other: intranasal (drug-soaked pledgets in the nasal cavity), Cmax (Geometric Least Squares Mean, ANOVA), Grade C hepatic impairment
  Cmax: 0.0301 µg/mL
[3]; plasma, other: intranasal (drug-soaked pledgets in the nasal cavity), Cmax (Geometric Least Squares Mean, ANOVA), Normal hepatic function
  Cmax: 0.0442 µg/mL
[3]; plasma, other: intranasal (drug-soaked pledgets in the nasal cavity), Cmax, range observed, hepatically impaired patients
  Cmax: 0.0162 to 0.0852 µg/mL
[3]; plasma, other: intranasal (drug-soaked pledgets in the nasal cavity), Tmax (approximate), normal hepatic function, plasma
  Tmax: ~0.5 h
[3]; plasma, other: intranasal (drug-soaked pledgets in the nasal cavity), Tmax, range observed, hepatically impaired patients
  Tmax: 0.306 to 1.87 h
[3]; hepatic impairment group
  plasma exposure after Tmax, times higher than normal hepatic function: about 2.5 times
[3]; [6]
  AUC0→t (Max): 0.523 µg·h/mL
  AUC0→t (Min): 0.0895 µg·h/mL
  AUC0→∞ (Max): 0.528 µg·h/mL
  AUC0→∞ (Min): 0.0909 µg·h/mL
  Clast (Geometric mean): 0.00027 µg/mL
  Clast (Max): 0.00173 µg/mL
  Clast (Mean): 0.000393 µg/mL
  Clast (Median): 0.000211 µg/mL
  Clast (Min): 0.000115 µg/mL
  Cmax (Max): 0.119 µg/mL
  Cmax (Min): 0.0171 µg/mL
  Tlast (Geometric mean): 31.6 h
  Tlast (Max): 32.0 h
  Tlast (Mean): 31.6 h
  Tlast (Median): 32.0 h
  Tlast (Min): 1680 min
  Tmax (Max): 3.00 h
  Tmax (Min): 7.02 min
  t1/2 (Geometric mean): 4.94 h
  t1/2 (Max): 9.86 h
  t1/2 (Min): 87.6 min
[3]; [7]
  AUC0→t (Max): 0.235 µg·h/mL
  AUC0→t (Min): 0.02 µg·h/mL
  AUC0→∞ (Max): 0.237 µg·h/mL
  AUC0→∞ (Min): 0.0217 µg·h/mL
  Clast (Geometric mean): 0.000188 µg/mL
  Clast (Max): 0.000405 µg/mL
  Clast (Mean): 0.00021 µg/mL
  Clast (Median): 0.00016 µg/mL
  Clast (Min): 0.000102 µg/mL
  Cmax (Max): 0.0752 µg/mL
  Cmax (Min): 0.00764 µg/mL
  Tlast (Geometric mean): 24.7 h
  Tlast (Max): 32.0 h
  Tlast (Mean): 26.0 h
  Tlast (Median): 28.0 h
  Tlast (Min): 720 min
  t1/2 (Max): 22.5 h
  t1/2 (Min): 110 min
